Measured values reported in patent publication US8642801B2 (BHI Limited Partnership, priority 2003, dated 2014).

Target: T1, Aβ40 and Aβ42 peptides in plasma and brain of TgCRND8 mice (Homo sapiens, UniProt P05067)
T1 construct: ELISA using Human Aβ40 and Aβ42 Fluorometric ELISA kits from Biosource; from tissue; host or cells: plasma and brain homogenate of TgCRND8 transgenic mice (hAPP transgene)
Experiment: Short term treatment in adult transgenic CRND8 mice overexpressing βAPP: Aβ levels in plasma and brain by ELISA
Format: in vivo, Mouse
Conditions: Brain Homogenate Methylcellulose Group, Day 14; TgCRND8 mice, 250 mg/kg daily oral
Source text: Transgenic mice, […]8, expressing the human amyloid precursor protein (hAPP) develop a pathology resembling Alzheimer's disease. In particular, high levels of Aβ40 and Aβ 42 have been documented in the plasma and the brain of these animals at 8-9 weeks of age, followed by early accumulation of amyloid plaques similar to the senile plaques observed in AD patients. These animals also display progressive cognitive deficits that parallel the appearance of degenerative changes. See, […], et al., J. Biol. Chem. 276, 21562-70 (2001). The short term therapeutic effect of 19 compounds of the invention was studied. […] The following abbreviations are used to designate these animals from the 3rd and 4th generation backcross in the present protocol: TgCRND8-2.B6C3F1(N3); TgCRND8-2.B6C3F1(N4). Baseline animals (Group 1) consisted of naive TgCRND8-2. B6C3F1(N3) at 11±1 weeks of age. These mice were used to determine the Aβ levels in the plasma and brain of naive transgenic animals at the initiation of treatment. […] At the end of the treatment periods, plasma and perfused brains were collected for quantification of Aβ levels. […] Plasma samples were immediately frozen and stored at -80° C. pending analysis. The brains were removed, frozen, and stored at -80° C. awaiting analysis. […] Samples were spun at 15000 g for 20 minutes and the supernatants were transferred to fresh tubes. […] The tubes were vortexed for 30 seconds and frozen at -80° C. […] Samples were thawed at room temperature, sonicated at 80° C. for 15 minutes and frozen again. This cycle was repeated 3 times to ensure homogeneity and samples were returned to -80° C. pending analysis. Aβ levels were evaluated in plasma and brain samples by ELISA using Human Aβ40 and Aβ42 Fluorometric ELISA kits from Biosource (Cat. […] In short, samples were thawed at room temperature, sonicated for 5 minutes at 80° C. (sonication for brain homogenates; no sonication for plasma samples) and kept on ice. Aβ peptides were captured using 100 μl of the diluted samples to the plate and incubated without shaking at 4° C. overnight. The samples were aspirated and the wells were rinsed 4 times with wash buffer obtained from the Biosource ELISA kit. The anti-Aβ40 or anti-Aβ42 rabbit polyclonal antiserum (specific for the Aβ40 or Aβ42 peptide) was added (100 μl) and the plate was incubated at room temperature for 2 hours with shaking. The wells were aspirated and washed 4 times before adding 100 μl of the alkaline phosphatase labeled anti-rabbit antibody and incubating at room temperature for 2 hours with shaking. The plates were then rinsed 5 times and the fluorescent substrate (100 μl) was added to the plate. The plate was incubated for 35 minutes at room temperature and the plate was read using a titer plate reader at an excitation wavelength of 460 nm and emission at 560 nm Compounds were scored based on their ability to modulate levels of Aβ peptides in the plasma and the cerebral soluble/insoluble levels in the brain. Levels of Aβ observed in the plasma and brain of treated animals were normalized using values from vehicle-treated (water) or methylcellulose-treated control groups and ranked according to the strength of the pharmacological effect. Increases in the levels of Aβ peptides are indicated using “+” symbols, while decreases in the levels of Aβ peptides are indicated using “-” symbols. The strongest effects are recorded as “+++” or “- - -” while the weakest are shown as “+” or “-”.

| Structure (SMILES) | Brain homogenate Aβ40 Change Soluble | Brain homogenate Aβ42 Change Insoluble | Brain homogenate Aβ42 Change Soluble |
| --- | --- | --- | --- |
| CC12CC3CC(C)(C1)CC(NCCCS(=O)(=O)O)(C3)C2 [CY] | − (Decreases in the levels of Aβ of 5 to 19% are scored as “−”) | ++ (increases of 40 to 69% are scored as “++”) | +++ (increases of 70% or higher are scored as “+ + +”) |

Same assay, conditions: Brain Homogenate Methylcellulose Group, Day 28; TgCRND8 mice, 250 mg/kg daily oral

| Structure (SMILES) | Brain homogenate Aβ40 Change Insoluble | Brain homogenate Aβ40 Change Soluble | Brain homogenate Aβ42 Change Insoluble | Brain homogenate Aβ42 Change Soluble |
| --- | --- | --- | --- | --- |
| CC12CC3CC(C)(C1)CC(NCCCS(=O)(=O)O)(C3)C2 [CY] | +++ (increases of 70% or higher are scored as “+ + +”) | ++ (increases of 40 to 69% are scored as “++”) | + (increases in the levels of Aβ (relative to untreated control) of 20 to 39% are scored as “+”) | +++ (increases of 70% or higher are scored as “+ + +”) |

Same assay, conditions: Brain Homogenate Vehicle Group, Day 14; TgCRND8 mice, 250 mg/kg daily

| Structure (SMILES) | Brain homogenate Aβ40 Change Insoluble | Brain homogenate Aβ42 Change Insoluble | Brain homogenate Aβ42 Change Soluble | Brain homogenate Aβ40 Change Soluble |
| --- | --- | --- | --- | --- |
| O=S(=O)(O)CCCNCC(O)c1ccccc1 (stereo not drawn) [DY] | −− (decreases of 20 to 38% are scored as “− −”) | −− (decreases of 20 to 38% are scored as “− −”) |  |  |
| CC(C)(NCCCS(=O)(=O)O)c1ccccc1 [DM, 3-cumylamino-1-propanesulfonic acid] | + (increases in the levels of Aβ (relative to untreated control) of 20 to 39% are scored as “+”) | − (Decreases in the levels of Aβ of 5 to 19% are scored as “−”) | − (Decreases in the levels of Aβ of 5 to 19% are scored as “−”) |  |
| COCC(NCCCS(=O)(=O)O)[C@@H](O)c1ccccc1 (stereo in doubt) [EG, 3-[(1R,2S)-2-hydroxy-1-(methoxymethyl)-2-phenylethyl]amino-1-propanesulfonic acid] | −− (decreases of 20 to 38% are scored as “− −”) | −− (decreases of 20 to 38% are scored as “− −”) | −− (decreases of 20 to 38% are scored as “− −”) | − (Decreases in the levels of Aβ of 5 to 19% are scored as “−”) |
| O=S(=O)(O)CCCNC1CC2CCC1C2 (stereo not drawn) [BY, 3-(2-norbornyl)amino-1-propanesulfonic acid] | +++ (increases of 70% or higher are scored as “+ + +”) |  | +++ (increases of 70% or higher are scored as “+ + +”) | +++ (increases of 70% or higher are scored as “+ + +”) |
| C#CC1(NCCCS(=O)(=O)O)CCCCC1 [DX, 3-(1-ethynylcyclohexyl)amino-1-propanesulfonic acid] | −− (decreases of 20 to 38% are scored as “− −”) | − (Decreases in the levels of Aβ of 5 to 19% are scored as “−”) |  |  |
| O=S(=O)(O)CC(O)CNC1CCCCC1 (stereo not drawn) [DC] | −− (decreases of 20 to 38% are scored as “− −”) | −− (decreases of 20 to 38% are scored as “− −”) | + (increases in the levels of Aβ (relative to untreated control) of 20 to 39% are scored as “+”) |  |
| CC1CC(NCCCS(=O)(=O)O)CC(C)(C)C1 (stereo not drawn) [ED, 3-(3,3,5-trimethylcyclohexyl)amino-1-1-propanesulfonic acid] | + (increases in the levels of Aβ (relative to untreated control) of 20 to 39% are scored as “+”) |  |  | − (Decreases in the levels of Aβ of 5 to 19% are scored as “−”) |
| CCC(CC)NCCCS(=O)(=O)O [DD, 3-(3-pentyl)amino-1-propanesulfonic acid] | − (Decreases in the levels of Aβ of 5 to 19% are scored as “−”) |  |  |  |
| COc1ccc([C@H](C)NCCCS(=O)(=O)O)cc1 [DZ, 3-[(S)-1-(4-methoxyphenyl)ethyl]amino-1-propanesulfonic acid] |  | −− (decreases of 20 to 38% are scored as “− −”) |  |  |

Same assay, conditions: Brain Homogenate Vehicle Group, Day 14; total levels, soluble and insoluble not measured independently; 250 mg/kg daily

| Structure (SMILES) | Brain homogenate Aβ40 Change, total level |
| --- | --- |
| CCNCCCS(=O)(=O)O [CV, 3-ethylamino-1-propanesulfonic acid] | − (Decreases in the levels of Aβ of 5 to 19% are scored as “−”) |

Same assay, conditions: Brain Homogenate Vehicle Group, Day 28; TgCRND8 mice, 250 mg/kg daily

| Structure (SMILES) | Brain homogenate Aβ40 Change Insoluble | Brain homogenate Aβ42 Change Insoluble | Brain homogenate Aβ42 Change Soluble | Brain homogenate Aβ40 Change Soluble |
| --- | --- | --- | --- | --- |
| O=S(=O)(O)CCCNCC(O)c1ccccc1 (stereo not drawn) [DY] | −−− (decreases of 39% or more are scored as “− − −”) | −− (decreases of 20 to 38% are scored as “− −”) | − (Decreases in the levels of Aβ of 5 to 19% are scored as “−”) |  |
| CC(C)(NCCCS(=O)(=O)O)c1ccccc1 [DM, 3-cumylamino-1-propanesulfonic acid] | −− (decreases of 20 to 38% are scored as “− −”) | −− (decreases of 20 to 38% are scored as “− −”) | −− (decreases of 20 to 38% are scored as “− −”) | − (Decreases in the levels of Aβ of 5 to 19% are scored as “−”) |
| COCC(NCCCS(=O)(=O)O)[C@@H](O)c1ccccc1 (stereo in doubt) [EG, 3-[(1R,2S)-2-hydroxy-1-(methoxymethyl)-2-phenylethyl]amino-1-propanesulfonic acid] | −− (decreases of 20 to 38% are scored as “− −”) | −− (decreases of 20 to 38% are scored as “− −”) |  |  |
| O=S(=O)(O)CCCNC1CC2CCC1C2 (stereo not drawn) [BY, 3-(2-norbornyl)amino-1-propanesulfonic acid] | +++ (increases of 70% or higher are scored as “+ + +”) | +++ (increases of 70% or higher are scored as “+ + +”) |  | + (increases in the levels of Aβ (relative to untreated control) of 20 to 39% are scored as “+”) |
| C#CC1(NCCCS(=O)(=O)O)CCCCC1 [DX, 3-(1-ethynylcyclohexyl)amino-1-propanesulfonic acid] | −− (decreases of 20 to 38% are scored as “− −”) | −− (decreases of 20 to 38% are scored as “− −”) | − (Decreases in the levels of Aβ of 5 to 19% are scored as “−”) |  |
| O=S(=O)(O)CC(O)CNC1CCCCC1 (stereo not drawn) [DC] | + (increases in the levels of Aβ (relative to untreated control) of 20 to 39% are scored as “+”) | +++ (increases of 70% or higher are scored as “+ + +”) | ++ (increases of 40 to 69% are scored as “++”) | − (Decreases in the levels of Aβ of 5 to 19% are scored as “−”) |
| CC1CC(NCCCS(=O)(=O)O)CC(C)(C)C1 (stereo not drawn) [ED, 3-(3,3,5-trimethylcyclohexyl)amino-1-1-propanesulfonic acid] | −− (decreases of 20 to 38% are scored as “− −”) | − (Decreases in the levels of Aβ of 5 to 19% are scored as “−”) | − (Decreases in the levels of Aβ of 5 to 19% are scored as “−”) | − (Decreases in the levels of Aβ of 5 to 19% are scored as “−”) |
| CCC(CC)NCCCS(=O)(=O)O [DD, 3-(3-pentyl)amino-1-propanesulfonic acid] | − (Decreases in the levels of Aβ of 5 to 19% are scored as “−”) |  |  |  |
| COc1ccc([C@H](C)NCCCS(=O)(=O)O)cc1 [DZ, 3-[(S)-1-(4-methoxyphenyl)ethyl]amino-1-propanesulfonic acid] | −− (decreases of 20 to 38% are scored as “− −”) | −− (decreases of 20 to 38% are scored as “− −”) | −− (decreases of 20 to 38% are scored as “− −”) | − (Decreases in the levels of Aβ of 5 to 19% are scored as “−”) |

Same assay, conditions: Brain Homogenate Vehicle Group, Day 28; total levels, soluble and insoluble not measured independently; 250 mg/kg daily

| Structure (SMILES) | Brain homogenate Aβ40 Change, total level | Brain homogenate Aβ42 Change, total level |
| --- | --- | --- |
| CCNCCCS(=O)(=O)O [CV, 3-ethylamino-1-propanesulfonic acid] | ++ (increases of 40 to 69% are scored as “++”) | +++ (increases of 70% or higher are scored as “+ + +”) |

Same assay, conditions: Plasma Methylcellulose Group, Day 28; TgCRND8 mice, 250 mg/kg daily oral in 1% methylcellulose, normalized to methylcellulose control

| Structure (SMILES) | Plasma Aβ42 Change |
| --- | --- |
| CC12CC3CC(C)(C1)CC(NCCCS(=O)(=O)O)(C3)C2 [CY] | + (increases in the levels of Aβ (relative to untreated control) of 20 to 39% are scored as “+”) |

Same assay, conditions: Plasma Vehicle Group, Day 14; TgCRND8 mice, 250 mg/kg daily subcutaneous, normalized to water vehicle control

| Structure (SMILES) | Plasma Aβ40 Change | Plasma Aβ42 Change |
| --- | --- | --- |
| O=S(=O)(O)CCCNC1CC2CCC1C2 (stereo not drawn) [BY, 3-(2-norbornyl)amino-1-propanesulfonic acid] | + (increases in the levels of Aβ (relative to untreated control) of 20 to 39% are scored as “+”) | + (increases in the levels of Aβ (relative to untreated control) of 20 to 39% are scored as “+”) |
| O=S(=O)(O)CC(O)CNC1CCCCC1 (stereo not drawn) [DC] | ++ (increases of 40 to 69% are scored as “++”) | ++ (increases of 40 to 69% are scored as “++”) |
| CCNCCCS(=O)(=O)O [CV, 3-ethylamino-1-propanesulfonic acid] | + (increases in the levels of Aβ (relative to untreated control) of 20 to 39% are scored as “+”) | ++ (increases of 40 to 69% are scored as “++”) |

Same assay, conditions: Plasma Vehicle Group, Day 28; TgCRND8 mice, 250 mg/kg daily subcutaneous, normalized to water vehicle control

| Structure (SMILES) | Plasma Aβ40 Change | Plasma Aβ42 Change |
| --- | --- | --- |
| O=S(=O)(O)CC(O)CNC1CCCCC1 (stereo not drawn) [DC] | ++ (increases of 40 to 69% are scored as “++”) |  |
| CCNCCCS(=O)(=O)O [CV, 3-ethylamino-1-propanesulfonic acid] | ++ (increases of 40 to 69% are scored as “++”) | ++ (increases of 40 to 69% are scored as “++”) |
